Assays:
Li-pilo induced SE = assay: Lithium-pilocarpine model of temporal lobe epilepsy (Example 1): mortality and spontaneous recurrent seizures; type: in vivo, rat
Text: The model induced in rats by pilocarpine associated with lithium (Li-Pilo) reproduces most of the clinical and neurophysiological features of human temporal lobe epilepsy (Turski et al., 1989, Synapse 3:154-171; Cavalheiro, 1995, Ital J Neurol Sci 16:33-37). In adult rats, the systemic administration of pilocarpine leads to status epilepticus (SE). The lethality rate reaches 30-50% during the first days. In the surviving animals, neuronal damage predominates within the hippocampal formation, the piriform and entorhinal cortices, thalamus, amygdaloid complex, neocortex and substantia nigra.
Male Wistar rats weighing 225-250 g, provided by Janvier Breeding Center (Le Genest-St-lste, France) were housed under controlled standard conditions (light/dark cycle, 7.00 a.m.-7.00 p.m. lights on), with food and water available ad libitum. All animal experimentation was performed in accordance with the rules of the European Communities Council Directive of Nov. 24, 1986 (86/609/EEC), and the French Department of Agriculture (License No 67-97). For electrode implantation, rats were anesthetized by an i.p. injection of 2.5 mg/kg diazepam (DZP, Valium, Roche, France) and […] ketamine chlorhydrate (Imalgene 1000, Rhone Merrieux, France). Four single-contact recording electrodes were placed on the skull, over the parietal cortex, two on each side.
All rats received lithium chloride (3 meq/kg, i.p., Sigma, St Louis, Mo., U.S.A.); about 20 h later, animals were placed into plexiglas boxes, in order to record baseline cortical EEG. Methylscopolamine bromide (1 mg/kg, s.c., Sigma) was administered to limit the peripheral effects of the convulsant. SE was induced by injecting pilocarpine hydrochloride (25 mg/kg, s.c., Sigma) 30 min after methyl-scopolamine. The bilateral EEG cortical activity was recorded during the whole duration of SE and behavioral changes were noted.
The effects of increasing doses of the test compound were studied on 3 groups of rats. The animals of the first group received 10 mg/kg of the test compound, i.p., 1 h after the onset of SE (pilo-test10) while the animals of groups 2 and 3 received 30 and 60 mg/kg of the test compound (pilo-test30 and pilo-test60), respectively.
Another group was injected with 2 mg/kg diazepam (DZP, i.m.) at 1 h after the onset of SE which are our standard treatment to improve animals survival after SE (pilo-DZP). The control group received saline instead of pilocarpine and the test compound (saline-saline). The pilo-test compound rats surviving SE were then injected about 10 h after the first test compound injection with a second i.p. injection of the same dose of the test compound and were maintained under a twice daily treatment with the test compound for 6 additional days. Pilo-DZP received a second injection of 1 mg/kg DZP on the day of SE at about 10 h after the first one. Thereafter, Pilo-DZP and saline-saline rats received twice daily an equivalent volume of saline.
The effects of the test compound on the EEG and on the latency to occurrence of SRS were investigated by daily video recording of the animals for 10 h per day and the recording of the electrographic activity twice a week for 8 h.
For the comparison of the characteristics of SE in pilo-saline and pilo-test compound animals, a non-paired Student's t-test was used. The comparison between the number of rats seizing in both groups was performed by means of a Chi square test. For neuronal damage, statistical analysis between groups was performed using ANOVA followed by a Fisher's test for multiple comparisons using the Statview software (Fisher R A, 1946a, Statistical Methods for Research Workers (10th edition) Oliver & Boyd, Edinburgh; Fisher R A, 1946b, The Design of Experiments (4th edition) Oliver & Boyd, Edinburgh) Behavioral and EEG characteristics of lithium-pitocarpine status epilepticus

Li-Pilo SE = assay: Lithium-pilocarpine model (Example 2): quantification of cell densities; type: in vivo, rat; conditions: for number of neuronal cell bodies, Dorsal entorhinal, layer II / number of neuronal cell bodies, Dorsal entorhinal, layer III / number of neuronal cell bodies, Piriform, layer II, dorsal / number of neuronal cell bodies, Piriform, layer II, ventral / number of neuronal cell bodies, Piriform, layer III / number of neuronal cell bodies, Ventral entorhinal, layer II / number of neuronal cell bodies, Ventral entorhinal, layers III-IV / number of neuronal cell bodies, hippocampus CA1 area / number of neuronal cell bodies, hippocampus CA3 area / number of neuronal cell bodies, hippocampus Hilus / damage, hilus of dentate gyrus / cell loss, CA1 pyramidal layer: 14 days after SE; for number of neuronal cell bodies, Dorsal entorhinal, layer II / number of neuronal cell bodies, Dorsal entorhinal, layer III / number of neuronal cell bodies, Piriform, layer II, dorsal / number of neuronal cell bodies, Piriform, layer II, ventral / number of neuronal cell bodies, Piriform, layer III / number of neuronal cell bodies, Ventral entorhinal, layer II / number of neuronal cell bodies, Ventral entorhinal, layers III-IV / number of neuronal cell bodies, hippocampus CA1 area / number of neuronal cell bodies, hippocampus CA3 area / number of neuronal cell bodies, hippocampus Hilus: mean ± S.E.M.
Method: Quantification of cell densities was performed at two times after SE: a first group was studied 14 days after SE and was composed by 7 DZP, 8 RWJ30, 11 RWJ60, 10 RWJ90, 8 RWJ120 and 8 control rats not subjected to SE. A second group used for the study of the latency to SRS was sacrificed either 8 weeks after the first SRS or at 5 months when no SRS could be seen in that delay and was composed by 7 DZP, 2 RWJ30, 3 RWJ60, 3 RWJ90, 4 RWJ120 rats. Animals were deeply anesthetized with 1.8 g/kg pentobarbital (Dolethal®, Vétoquinol, Lure, France). Brains were then removed and frozen. Serial 20 μm slices were cut in a cryostat, air-dried during several days before thionine staining. Quantification of cell densities was performed with a 10×10 boxes 1 cm^2 microscopic grid on coronal sections according to the stereotaxic coordinates of the rat brain atlas (Paxinos and Watson, 1986, The Rat Brain in Stereotaxic coordinates, 2nd ed. Academic Press, San Diego). The grid of counting was placed on a well-defined area of the cerebral structure of interest and counting was carried out with a microscopic enlargement of 200- or 400-fold defined for each single cerebral structure. Cell counts were performed twice on each side of three adjacent sections for each region by a single observer unaware of the animal's treatment. The number of cells obtained in the 12 counted fields in each cerebral structure was averaged. This procedure was used to minimize the potential errors that could result from double counting leading to overestimation of cell numbers. […] Counts involved only neurons with cell bodies larger than 10 μm. Cells with small cell bodies were considered as glial cells and were not counted.
For neuronal damage, statistical analysis between groups was performed by means of a one-way analysis of variance followed by a post-hoc Scheffe's test using the Statview software.

NC(=O)OC[C@@H](O)c1ccccc1Cl [test compound]
latency to SRS (Li-pilo induced SE; 10 mg/kg i.p., 7-day treatment, n=7): 15.4 ± 5.1 days | frequency of stage III SRS (Li-pilo induced SE; 10 mg/kg, weeks 3 and 4): significantly increased over pilo-DZP values | latency to SRS (Li-pilo induced SE; 30 mg/kg i.p., 7-day treatment, n=10): 18.9 ± 9.0 days | frequency of stage IV-V SRS (Li-pilo induced SE; 60 mg/kg group with early SRS onset, weeks 2-4): 0.6-0.9 seizure per week | delay without becoming epileptic post-SE (Li-pilo induced SE; 60 mg/kg, one rat): > 9 months | mean delay to epilepsy relative to the other groups of animals (Li-pilo induced SE; 60 mg/kg, subgroup of animals): about 9 fold | latency to SRS (Li-pilo induced SE; 60 mg/kg, subgroup with latency similar to other groups, n=7): 17.6 ± 8.7 days | latency to SRS (mean) (Li-pilo induced SE; 60 mg/kg, subgroup with much longer delay, n=4): 149.8 ± 36.0 days | rats with delayed occurrence of spontaneous seizures (Li-pilo induced SE; 60 mg/kg, 4 out of 11): 36% | frequency of stage IV-V SRS (Li-pilo induced SE; 10, 30 and 60 mg/kg (early SRS onset) groups, first week): 2.3-6.1 SRS per week | mortality during the first 48 h after SE (Li-pilo induced SE; test compound 10 mg/kg i.p. 1 h after SE onset): 26% | mortality during the first 48 h after SE (Li-pilo induced SE; test compound 30 mg/kg i.p. 1 h after SE onset): 20% | mortality during the first 48 h after SE (Li-pilo induced SE; test compound 60 mg/kg i.p. 1 h after SE onset): 4% | damage, piriform cortex ventral layer II (Li-Pilo SE; 60 mg/kg): 56% | cell loss, piriform cortex layer III (Li-Pilo SE; 120 mg/kg): 21% | damage, piriform cortex ventral layer II (Li-Pilo SE; 120 mg/kg): 9% | neuroprotection in CA3 pyramidal layer (Li-Pilo SE; 120 mg/kg, difference with DZP not significant): tendency to a slight neuroprotection | neuroprotection in all layers of the dorsal entorhinal cortex (Li-Pilo SE; 30 and 60 mg/kg): did not afford any neuroprotection | damage, piriform cortex dorsal layer II (Li-Pilo SE; 60-120 mg/kg): 4-21% | cell loss, piriform cortex layer III (Li-Pilo SE; 60 and 90 mg/kg (two lower of the 60-120 mg/kg doses)): 53-64% | cell losses, ventral entorhinal cortex layers III/IV (Li-Pilo SE; 90 and 120 mg/kg): 18-21% | damage remaining, entorhinal cortex dorsal layers II and III/IV and ventral layer II (Li-Pilo SE; 90 and 120 mg/kg): 4-14% | number of neuronal cell bodies, Dorsal entorhinal, layer II (Li-Pilo SE; RWJ30 = 30 mg/kg): 23.4 ± 0.8 | number of neuronal cell bodies, Dorsal entorhinal, layer III (Li-Pilo SE; RWJ30 = 30 mg/kg): 21.5 ± 1.3 | number of neuronal cell bodies, Piriform, layer II, dorsal (Li-Pilo SE; RWJ30 = 30 mg/kg): 15.7 ± 3.6 | number of neuronal cell bodies, Piriform, layer II, ventral (Li-Pilo SE; RWJ30 = 30 mg/kg): 7.2 ± 4.6 | number of neuronal cell bodies, Piriform, layer III (Li-Pilo SE; RWJ30 = 30 mg/kg): 1.8 ± 2.3 | number of neuronal cell bodies, Ventral entorhinal, layer II (Li-Pilo SE; RWJ30 = 30 mg/kg): 22.7 ± 1.2 | number of neuronal cell bodies, Ventral entorhinal, layers III-IV (Li-Pilo SE; RWJ30 = 30 mg/kg): 13.2 ± 2.5 | number of neuronal cell bodies, hippocampus CA1 area (Li-Pilo SE; RWJ30 = 30 mg/kg): 39.3 ± 5.0°° | number of neuronal cell bodies, hippocampus CA3 area (Li-Pilo SE; RWJ30 = 30 mg/kg): 35.7 ± 1.4 | number of neuronal cell bodies, hippocampus Hilus (Li-Pilo SE; RWJ30 = 30 mg/kg): 33.0 ± 4.0 | number of neuronal cell bodies, Dorsal entorhinal, layer II (Li-Pilo SE; RWJ60 = 60 mg/kg): 24.1 ± 0.7 | number of neuronal cell bodies, Dorsal entorhinal, layer III (Li-Pilo SE; RWJ60 = 60 mg/kg): 24.0 ± 0.4 | number of neuronal cell bodies, Piriform, layer II, dorsal (Li-Pilo SE; RWJ60 = 60 mg/kg): 28.9 ± 2.7°° | number of neuronal cell bodies, Piriform, layer II, ventral (Li-Pilo SE; RWJ60 = 60 mg/kg): 14.8 ± 5.9 | number of neuronal cell bodies, Piriform, layer III (Li-Pilo SE; RWJ60 = 60 mg/kg): 6.9 ± 2.9 | number of neuronal cell bodies, Ventral entorhinal, layer II (Li-Pilo SE; RWJ60 = 60 mg/kg): 23.1 ± 0.7 | number of neuronal cell bodies, Ventral entorhinal, layers III-IV (Li-Pilo SE; RWJ60 = 60 mg/kg): 17.8 ± 2.8 | number of neuronal cell bodies, hippocampus CA1 area (Li-Pilo SE; RWJ60 = 60 mg/kg): 31.9 ± 4.4 | number of neuronal cell bodies, hippocampus CA3 area (Li-Pilo SE; RWJ60 = 60 mg/kg): 31.6 ± 2.1 | number of neuronal cell bodies, hippocampus Hilus (Li-Pilo SE; RWJ60 = 60 mg/kg): 32.8 ± 5.4 | number of neuronal cell bodies, Dorsal entorhinal, layer II (Li-Pilo SE; RWJ90 = 90 mg/kg): 26.3 ± 0.9 | number of neuronal cell bodies, Dorsal entorhinal, layer III (Li-Pilo SE; RWJ90 = 90 mg/kg): 25.4 ± 1.3 | number of neuronal cell bodies, Piriform, layer II, dorsal (Li-Pilo SE; RWJ90 = 90 mg/kg): 32.4 ± 1.3° | number of neuronal cell bodies, Piriform, layer II, ventral (Li-Pilo SE; RWJ90 = 90 mg/kg): 18.4 ± 5.1 | number of neuronal cell bodies, Piriform, layer III (Li-Pilo SE; RWJ90 = 90 mg/kg): 9.0 ± 4.1 | number of neuronal cell bodies, Ventral entorhinal, layer II (Li-Pilo SE; RWJ90 = 90 mg/kg): 26.7 ± 0.9°° | number of neuronal cell bodies, Ventral entorhinal, layers III-IV (Li-Pilo SE; RWJ90 = 90 mg/kg): 23.7 ± 1.7° | number of neuronal cell bodies, hippocampus CA1 area (Li-Pilo SE; RWJ90 = 90 mg/kg): 47.7 ± 5.4° | number of neuronal cell bodies, hippocampus CA3 area (Li-Pilo SE; RWJ90 = 90 mg/kg): 35.1 ± 1.0 | number of neuronal cell bodies, hippocampus Hilus (Li-Pilo SE; RWJ90 = 90 mg/kg): 37.5 ± 5.2**° | number of neuronal cell bodies, Dorsal entorhinal, layer II (Li-Pilo SE; RWJ120 = 120 mg/kg): 27.3 ± 0.5 | number of neuronal cell bodies, Dorsal entorhinal, layer III (Li-Pilo SE; RWJ120 = 120 mg/kg): 26.4 ± 0.9 | number of neuronal cell bodies, Piriform, layer II, dorsal (Li-Pilo SE; RWJ120 = 120 mg/kg): 35.2 ± 1.3° | number of neuronal cell bodies, Piriform, layer II, ventral (Li-Pilo SE; RWJ120 = 120 mg/kg): 30.5 ± 1.5° | number of neuronal cell bodies, Piriform, layer III (Li-Pilo SE; RWJ120 = 120 mg/kg): 15.0 ± 2.5°° | number of neuronal cell bodies, Ventral entorhinal, layer II (Li-Pilo SE; RWJ120 = 120 mg/kg): 25.1 ± 0.7 | number of neuronal cell bodies, Ventral entorhinal, layers III-IV (Li-Pilo SE; RWJ120 = 120 mg/kg): 24.5 ± 1.6° | number of neuronal cell bodies, hippocampus CA1 area (Li-Pilo SE; RWJ120 = 120 mg/kg): 65.5 ± 2.9° | number of neuronal cell bodies, hippocampus CA3 area (Li-Pilo SE; RWJ120 = 120 mg/kg): 39.8 ± 1.5 | number of neuronal cell bodies, hippocampus Hilus (Li-Pilo SE; RWJ120 = 120 mg/kg): 44.8 ± 3.6 | damage, hilus of dentate gyrus (Li-Pilo SE; RWJ30, 60 and 90 groups): 62-66% | cell loss, CA1 pyramidal layer (Li-Pilo SE; RWJ30, 60 or 90 rats): 36-57% | neuroprotection in piriform cortex (Li-Pilo SE; RWJ30 dose): did not protect any layer | cell loss, CA1 pyramidal layer (Li-Pilo SE; RWJ120): 13% | damage, hilus of dentate gyrus (Li-Pilo SE; RWJ120): 54% | damage, piriform cortex ventral layer II (Li-Pilo SE; second dose of 'the 60 and 120 mg/kg RWJ dose' as printed): 45%
